Measurements: patent US20080249080A1, “Benzodiazepine Derivatives and Uses Thereof on Medical Field” (priority 2005, published 2008)
Entries after “also recorded” stand apart in the source; their conditions may differ.

Experiments:
K562 cell line [1] = assay: DNA fragmentation, K562 leukemic cell line; assay type: cell-based, human; conditions: 5, 10, 15 μM, 8, 16 and 24 hours, FIG. 1 A, B
bcr-abl protein [2] = target: T1, bcr-abl protein (Homo sapiens, UniProt P00519); assay: Tyrosine-kinase assay, bcr-abl phosphorylation pattern; assay type: cell-based; conditions: FIG. 4
T1 construct: endogenous in cells; host or cells: K562; the other entry of the earlier key: BCR (P11274, Breakpoint cluster region protein)
T1 sequence (P00519 with tags, fused parts or gaps): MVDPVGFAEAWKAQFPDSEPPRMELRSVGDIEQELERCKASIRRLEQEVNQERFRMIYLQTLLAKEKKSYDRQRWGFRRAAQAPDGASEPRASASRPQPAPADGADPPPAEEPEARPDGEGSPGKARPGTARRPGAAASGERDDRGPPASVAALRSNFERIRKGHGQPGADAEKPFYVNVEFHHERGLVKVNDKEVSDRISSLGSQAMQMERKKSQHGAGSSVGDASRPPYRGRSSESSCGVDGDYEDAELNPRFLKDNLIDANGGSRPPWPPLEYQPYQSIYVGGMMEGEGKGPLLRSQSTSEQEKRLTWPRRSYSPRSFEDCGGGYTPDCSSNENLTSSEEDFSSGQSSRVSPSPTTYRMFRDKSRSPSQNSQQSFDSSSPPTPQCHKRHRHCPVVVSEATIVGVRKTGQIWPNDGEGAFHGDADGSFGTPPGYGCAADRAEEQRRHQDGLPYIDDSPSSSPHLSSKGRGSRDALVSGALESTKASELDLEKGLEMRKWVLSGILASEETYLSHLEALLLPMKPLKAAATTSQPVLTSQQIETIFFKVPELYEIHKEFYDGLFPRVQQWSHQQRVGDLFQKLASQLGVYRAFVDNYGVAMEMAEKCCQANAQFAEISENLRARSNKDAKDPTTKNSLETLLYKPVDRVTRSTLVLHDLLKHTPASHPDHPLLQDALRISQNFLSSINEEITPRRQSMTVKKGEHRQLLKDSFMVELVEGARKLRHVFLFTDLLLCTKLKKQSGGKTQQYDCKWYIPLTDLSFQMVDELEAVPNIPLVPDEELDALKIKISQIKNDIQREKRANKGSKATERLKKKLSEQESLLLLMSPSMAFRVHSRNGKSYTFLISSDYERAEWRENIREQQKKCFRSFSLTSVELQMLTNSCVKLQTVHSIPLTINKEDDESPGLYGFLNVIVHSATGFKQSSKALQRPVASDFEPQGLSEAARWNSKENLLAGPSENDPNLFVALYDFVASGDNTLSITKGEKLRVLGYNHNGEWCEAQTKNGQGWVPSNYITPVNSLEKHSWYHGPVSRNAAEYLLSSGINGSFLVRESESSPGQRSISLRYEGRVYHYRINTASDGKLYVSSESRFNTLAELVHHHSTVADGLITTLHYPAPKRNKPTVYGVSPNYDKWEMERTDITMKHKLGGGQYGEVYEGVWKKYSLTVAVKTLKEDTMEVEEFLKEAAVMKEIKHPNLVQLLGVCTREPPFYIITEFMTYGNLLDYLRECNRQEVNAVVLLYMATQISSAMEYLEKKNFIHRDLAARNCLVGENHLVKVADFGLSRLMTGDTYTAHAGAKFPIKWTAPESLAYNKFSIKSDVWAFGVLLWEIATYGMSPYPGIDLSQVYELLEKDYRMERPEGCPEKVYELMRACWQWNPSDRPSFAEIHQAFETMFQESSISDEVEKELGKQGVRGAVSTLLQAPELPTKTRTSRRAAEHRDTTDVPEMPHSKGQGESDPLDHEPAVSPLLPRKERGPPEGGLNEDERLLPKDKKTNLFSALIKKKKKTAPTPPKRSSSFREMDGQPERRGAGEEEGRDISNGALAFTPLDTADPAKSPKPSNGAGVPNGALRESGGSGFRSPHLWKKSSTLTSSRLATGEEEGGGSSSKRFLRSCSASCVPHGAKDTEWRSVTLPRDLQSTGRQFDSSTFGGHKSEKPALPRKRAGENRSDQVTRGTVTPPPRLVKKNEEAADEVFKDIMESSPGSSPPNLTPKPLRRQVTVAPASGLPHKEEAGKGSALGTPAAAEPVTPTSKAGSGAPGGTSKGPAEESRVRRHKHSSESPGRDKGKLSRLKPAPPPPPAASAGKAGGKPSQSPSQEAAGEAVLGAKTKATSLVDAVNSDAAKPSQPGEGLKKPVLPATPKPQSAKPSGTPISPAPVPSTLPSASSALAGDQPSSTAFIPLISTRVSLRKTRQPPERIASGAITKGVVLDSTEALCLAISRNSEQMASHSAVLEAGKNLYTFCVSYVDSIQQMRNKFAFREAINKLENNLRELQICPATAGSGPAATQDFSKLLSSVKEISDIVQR
Method: (§1) Moreover, in order to elucidate the apoptotic pathway triggered by these two substances, Western Blotting experiments and tyrosine-kinase assays were carried out and evidenced that: […]

ARO cell line = assay: Percentage of dead cells, ARO; assay type: cell-based, human; conditions: after 24 hours
[3] = test system: Jurkat (cell line from acute lymphoblastic T variant leukemias); assay: Apoptosis by propidium iodide flow cytofluorimetry, Jurkat; assay type: cell-based; conditions: 10 μM; for percentage of the apoptotic cells in comparison with non treated cells: FIGS. 7-9; for time after which apoptosis is induced: propidium iodide, cytofluorimeter
Method: (§2) The used cellular lines are: K562 (human erythroleucemic cell line), HL60 (human acute promyelocytic leukemia cell line), Jurkat (cell line from acute lymphoblastic T variant leukemias), U937 (acute promyelocitic leukemia cell line) and Glivec resistant K562 (this cell line was supplied kindly by Prof. Carlo Gambacorti-Passerini of the Dipartimento of Clinica Medica, Università of Milan-Bicocca, Monza, Italy) (Gambacorti-Passerini CB, et al, 2002).
(§3) The cell lines were incubated with RS678 and RS779 synthetic compounds at 10 μM concentration for 8, 16 and 24 hours, subsequently washed with PBS and 2.5 mg/ml of propidium iodide. This phenanthridine dye, when intercalated into double-stranded DNA forms a sufficiently stable complex that under excitation emits a red fluorescent light. By means of this coloration it is possible to discriminate in an heterogenous population cells with different DNA contents and therefore to estimate the distribution of the cellular populations based on their DNA contents and whether possibly, as a result from pharmacological treatments, alterations at level of cell cycle have manifested. The labeled cell lines were analyzed using flow FACSort cytofluorimeter.

[4] = test system: U937 (acute promyelocitic leukemia cell line); assay: Apoptosis by propidium iodide flow cytofluorimetry, U937; assay type: cell-based; conditions: 10 μM; for percentage of the apoptotic cells in comparison with non treated cells: FIGS. 7-9; for time after which apoptosis is induced: propidium iodide, cytofluorimeter
Method: as §2, §3

bcr-abl protein [5] = assay: Western blot, bcr-abl protein expression; assay type: cell-based, human; conditions: after 16 hours of treatment; FIG. 4
Method: as §1

caspase 9 [6] = assay: Western blot, caspase 9 in CML patient sample; assay type: cell-based, human; conditions: 24 and 48 hours, FIG. 15
[7] = test system: R2C cell line (rat Leydig tumour); assay: DNA fragmentation, R2C cell line; assay type: cell-based; conditions: high concentrations (10 μM and 50 μM), FIG. 1 C
[8] = test system: ARO anaplastic thyroid carcinoma cell line; assay: DNA fragmentation, ARO; assay type: cell-based, human; conditions: 10 μM, 24 and 48 hours
Method: (§4) The authors also have tested compounds according to the invention, in particular RS-678 and RS-779 compounds, also on OVCAR3 ovary carcinoma cell lines, ARO anaplastic thyroid and NPA papillary thyroid human carcinoma cell lines.
(§5) Subsequently, the same cell lines, except OVCAR3, were tested with fourteen new synthetic compounds at 10 μM concentration for 24 and 48 hours: eleven induced the expected cellular death.

[9] = test system: K562 (human erythroleucemic cell line); assay: Apoptosis by propidium iodide flow cytofluorimetry, K562; assay type: cell-based; conditions: 10 μM; for percentage of the apoptotic cells in comparison with non treated cells: FIGS. 7-9; for time after which apoptosis is induced: propidium iodide, cytofluorimeter
Method: as §2, §3

[10] = test system: HL60 (human acute promyelocytic leukemia cell line); assay: Apoptosis by propidium iodide flow cytofluorimetry, HL60; assay type: cell-based; conditions: 10 μM; for percentage of the apoptotic cells in comparison with non treated cells: FIGS. 7-9; for time after which apoptosis is induced: propidium iodide, cytofluorimeter
Method: as §2, §3

Glivec resistant K562 = assay: Apoptosis by propidium iodide flow cytofluorimetry, Glivec resistant K562; assay type: cell-based, human; conditions: 10 μM; for percentage of the apoptotic cells in comparison with non treated cells: FIGS. 7-9; for time after which apoptosis is induced: propidium iodide, cytofluorimeter
Method: as §2, §3

K562 cell line [11] = assay: Percentage of apoptosis, K562; assay type: cell-based, human; conditions: after 24 hours
[12] = test system: mixed lymphocytic cultures from marrow or peripheral blood of patients suffering from chronic myelogenous leukemia; assay: DNA fragmentation, mixed lymphocytic cultures of CML patients; assay type: cell-based, human; conditions: 10 μM
caspase 9 [13] = assay: Western blot, caspase 9 activation in K562; assay type: cell-based, human; conditions: FIG. 3
Method: (§6) Moreover, in order to elucidate the apoptotic pathway triggered by these two substances, Western Blotting experiments and tyrosine-kinase assays were carried out and evidenced that: (i) these compounds activate specific molecules involved in the apoptotic process (caspase 9 and caspase 8) (FIG. 3);

caspase 8 = assay: Western blot, caspase 8 activation in K562; assay type: cell-based, human; conditions: FIG. 3
Method: as §6

[14] = test system: OVCAR3 ovary carcinoma cell line; assay: DNA fragmentation, OVCAR3; assay type: cell-based, human; conditions: 10 μM, 24 and 48 hours
Source text: as §4

[15] = test system: NPA papillary thyroid carcinoma cell line; assay: DNA fragmentation, NPA; assay type: cell-based, human; conditions: 10 μM, 24 and 48 hours
Method: as §4, §5

NPA cell line = assay: Percentage of apoptosis, NPA; assay type: cell-based, human; conditions: after 24 hours
[16] = test system: RET/C634R and RET/M918T mutants; conditions: cited from earlier work
[17] = test system: RET/V804L and RET/V804M mutants; conditions: cited from earlier work
[18] = test system: RET/E768D, RET/L790F, RET/Y791F, RET/A883F and RET/S891A mutants; conditions: cited from earlier work
RET kinase = RET kinase (Homo sapiens, UniProt P07949); conditions: cited from earlier work
Sequence of RET kinase (P07949 29-1114): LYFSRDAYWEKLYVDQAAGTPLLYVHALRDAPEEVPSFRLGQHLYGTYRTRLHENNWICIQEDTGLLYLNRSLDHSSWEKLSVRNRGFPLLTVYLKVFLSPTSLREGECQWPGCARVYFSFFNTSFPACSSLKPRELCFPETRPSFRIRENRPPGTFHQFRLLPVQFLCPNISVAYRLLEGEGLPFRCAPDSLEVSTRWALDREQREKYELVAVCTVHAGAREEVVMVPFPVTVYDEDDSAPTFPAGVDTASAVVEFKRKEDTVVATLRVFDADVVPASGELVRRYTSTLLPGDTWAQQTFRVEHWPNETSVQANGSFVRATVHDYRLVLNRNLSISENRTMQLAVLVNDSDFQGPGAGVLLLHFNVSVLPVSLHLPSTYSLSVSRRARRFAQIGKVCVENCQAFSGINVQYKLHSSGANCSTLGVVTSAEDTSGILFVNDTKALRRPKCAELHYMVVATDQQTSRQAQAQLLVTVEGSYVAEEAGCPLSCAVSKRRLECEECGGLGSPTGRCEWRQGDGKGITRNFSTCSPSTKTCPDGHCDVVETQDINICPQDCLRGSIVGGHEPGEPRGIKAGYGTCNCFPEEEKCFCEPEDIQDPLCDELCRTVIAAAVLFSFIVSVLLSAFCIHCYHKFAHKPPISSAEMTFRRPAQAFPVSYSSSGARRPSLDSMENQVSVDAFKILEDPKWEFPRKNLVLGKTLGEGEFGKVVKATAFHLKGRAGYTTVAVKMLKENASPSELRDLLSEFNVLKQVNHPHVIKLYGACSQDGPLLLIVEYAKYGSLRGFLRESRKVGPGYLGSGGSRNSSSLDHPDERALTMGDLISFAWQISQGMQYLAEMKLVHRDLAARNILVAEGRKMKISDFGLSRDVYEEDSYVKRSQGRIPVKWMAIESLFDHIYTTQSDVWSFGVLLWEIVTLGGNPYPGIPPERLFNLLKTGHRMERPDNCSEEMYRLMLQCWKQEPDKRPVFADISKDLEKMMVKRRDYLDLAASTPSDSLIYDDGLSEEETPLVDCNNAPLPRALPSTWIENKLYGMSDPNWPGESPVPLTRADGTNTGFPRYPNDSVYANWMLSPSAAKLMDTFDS

[19] = test system: RET/C634R transformed RAT1 fibroblasts; conditions: 1 μl of ZD6474; cited from earlier work
[20] = test system: RET/V804L and RET/V804M transformed cells; conditions: same concentration (1 μl of ZD6474); cited from earlier work
[21] = mixed lymphocytic cultures of CML patients, 8, 16, 24 and 48 hours
[22] = samples from patients (some Glivec resistant), 24, 48 and 72 hours, FIGS. 12-14

SMILES	apoptosis / DNA fragmentation (K562 cell line [1])	changes in the phosphorylation pattern of the bcr-abl protein (tyrosine-kinase assay) (bcr-abl protein [2])	percentage of the apoptotic cells in comparison with non treated cells [3]	time after which apoptosis is induced [3] [h]	percentage of the apoptotic cells in comparison with non treated cells [4]	time after which apoptosis is induced [4] [h]	down-regulation of the bcr-abl protein (Western blot) (bcr-abl protein [5])	DNA fragmentation [7]	DNA fragmentation [8]	percentage of the apoptotic cells in comparison with non treated cells [9]	time after which apoptosis is induced [9] [h]	percentage of the apoptotic cells in comparison with non treated cells [10]	time after which apoptosis is induced [10] [h]	percentage of the apoptotic cells in comparison with non treated cells (Glivec resistant K562)	time after which apoptosis is induced (Glivec resistant K562) [h]	DNA fragmentation [12, 21]	DNA fragmentation [12, 22]	activation of caspase 9 (Western blot) (caspase 9 [13])	activation of caspase 8 (Western blot) (caspase 8)	DNA fragmentation [14]	also measured
CCOC(=O)C1c2cccn2S(=O)(=O)c2ccccc2N1C(=O)c1ccc(C)cc1 (stereo not shown) [RS-779, ethyl 10,11-dihydro-10-(4-methylbenzoyl)pyrrolo[1,2-b][1,2,5]benzothiadiazepine-11-carboxylate 5,5-dioxide]	able to induce apoptosis; also recorded: DNA fragmentation	not observed	increase	8	increase	8	down-regulation	does not occur	induction of the DNA fragmentation	increase	8	increase	8	increase	16	fragmentation of the DNA	DNA fragmentation	activation	activation	induction of the DNA fragmentation	percentage of dead cells (ARO cell line): 45%; activation of caspase 9 (Western blot) (caspase 9 [6]): strong activation; percentage of apoptosis (K562 cell line [11]): 70%; DNA fragmentation [15]: induction of the DNA fragmentation; percentage of apoptosis (NPA cell line): 50%
CCOC(=O)C1Nc2ccccc2S(=O)(=O)n2cccc21 (stereo not shown) [RS-678, ethyl 10,11-dihydropyrrolo[1,2-b][1,2,5]benzothiadiazepine-11-carboxylate 5,5-dioxide]	able to induce apoptosis; also recorded: DNA fragmentation	not observed	increase	8	increase	8	down-regulation	does not occur	induction of the DNA fragmentation	increase	8	increase	8	increase	16	fragmentation of the DNA	DNA fragmentation	activation	activation	induction of the DNA fragmentation	DNA fragmentation [15]: induction of the DNA fragmentation
CC(C)(C)n1nc(-c2ccc(Cl)cc2)c2c(N)ncnc21 [PP2]																					block of the transforming activity [16]: able to block; sensitivity to the action of inhibitors [17]: less sensitive; inhibition of in vivo self-phosphorylation [18]: inhibited effectively; inhibiting activity with respect to RET kinase (RET kinase): strong inhibiting activity
COc1cc2c(Nc3ccc(Br)cc3F)ncnc2cc1OCC1CCN(C)CC1 [ZD6474]																					block of the transforming activity [16]: able to block; sensitivity to the action of inhibitors [17]: less sensitive; proliferation [19]: reduces strongly; inhibition of in vivo self-phosphorylation [18]: inhibited effectively; growth [20]: no effect
